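Step 1: Grow cells in 96-well plates. Step 2: Expose to compound for 48 hours at 5 concentrations. Step 3: Interpolate endpoints linearly; if unreached, use highest concentration. Here, GI50 denotes the concentration required for 50% inhibition of growth. TGI marks complete inhibition of growth.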

Among the test systems are UACC-62 melanoma; A549 NSCLC; K-562 leukemia; DU-145 prostate; U251 CNS; SN12C renal; UO-31 renal; UACC-257 melanoma; EKVX NSCLC; BT-549 breast.
Assay in all cases: growth of human tumour cells (NCI), 48 h

On to `COc1ccc(C(=O)c2cc3c(OC)c(OC)c(OC)cc3[nH]2)cc1`, for which the GI50 in the test with UACC-62 melanoma is 3.39 µM; with A549 NSCLC, 5.77 µM; in the test on K-562 leukemia, 1.1 µM; in the test on DU-145 prostate, above 100 µM; in the test with U251 CNS, 5.2 µM; with SN12C renal, 5.21 µM. Further, the GI50 in the test on UO-31 renal was 6.19 µM; with UACC-257 melanoma, above 100 µM; in the test on EKVX NSCLC, 5.14 µM; in the test with BT-549 breast, 8.51 µM. Also, the TGI with UACC-62 melanoma, in the test on A549 NSCLC, in the test on K-562 leukemia, in the test with DU-145 prostate, with U251 CNS and in the test with SN12C renal was above 100 µM each time. Also, the TGI in the test with UO-31 renal, in the test with UACC-257 melanoma, in the test on EKVX NSCLC and in the test on BT-549 breast was above 100 µM in each case.
Turning to `COc1ccc(-n2c3c(c4c(CN5CCOCC5)c(O)ccc42)CCc2ccccc2C3=O)cc1`, the GI50 is above 100 µM with UACC-62 melanoma; above 100 µM in the test on A549 NSCLC; 17.8 µM with K-562 leukemia; 67.9 µM in the test on DU-145 prostate; 85.7 µM in the test with U251 CNS; 43.3 µM in the test with SN12C renal. For the same compound, the GI50 is above 100 µM with UO-31 renal, above 100 µM in the test on UACC-257 melanoma, above 100 µM in the test with EKVX NSCLC and 24.2 µM in the test with BT-549 breast. In addition, the TGI in the test on UACC-62 melanoma, in the test on A549 NSCLC, with K-562 leukemia, in the test with DU-145 prostate, in the test on U251 CNS and with SN12C renal was above 100 µM throughout. Besides, the TGI with UO-31 renal, in the test with UACC-257 melanoma, in the test with EKVX NSCLC and in the test on BT-549 breast was above 100 µM throughout.
Consider `COc1ccc(/C=C/C(=O)Oc2cc(O)cc(O)c2)cc1`, for which the TGI in the test on UACC-62 melanoma, in the test on A549 NSCLC, in the test on K-562 leukemia, in the test with DU-145 prostate, in the test with U251 CNS and in the test with SN12C renal was above 100 µM throughout. Further, the TGI in the test with UO-31 renal, in the test on UACC-257 melanoma, with EKVX NSCLC and in the test with BT-549 breast was above 100 µM in each case.
On to `Cc1ccc2c(c1)NC(=O)CC(c1ccccc1)=N2`, for which the TGI is above 100 µM in the test on UACC-62 melanoma; above 100 µM with A549 NSCLC; 26.7 µM with K-562 leukemia; above 100 µM with DU-145 prostate; above 100 µM with U251 CNS; above 100 µM with SN12C renal. Further, the TGI in the test on UO-31 renal, with UACC-257 melanoma, in the test on EKVX NSCLC and in the test on BT-549 breast was above 100 µM each time.
For `C=C1C(=O)O[C@H]2[C@H]1CC/C(COC(=O)CSCC(=O)OC/C1=C/CC[C@@]3(C)O[C@H]3[C@H]3OC(=O)C(=C)[C@@H]3CC1)=C\CC[C@@]1(C)O[C@@H]21`, the GI50 in the test with UACC-62 melanoma is 1.69 µM; in the test on A549 NSCLC it was 5 µM; in the test with K-562 leukemia, 0.636 µM; with DU-145 prostate, 1.5 µM; with U251 CNS it was 3.19 µM; in the test with SN12C renal, 1.6 µM. Further, the GI50 was 1.44 µM in the test on UO-31 renal, 1.76 µM with UACC-257 melanoma, 1.82 µM with EKVX NSCLC and 1.42 µM in the test with BT-549 breast. Besides, the TGI amounted to 3.95 µM with UACC-62 melanoma; 18.2 µM in the test on A549 NSCLC; 4.06 µM in the test on K-562 leukemia; 3.05 µM in the test with DU-145 prostate; 11.3 µM in the test with U251 CNS; 3.54 µM in the test on SN12C renal. The TGI in the test on UO-31 renal came to 2.83 µM; with UACC-257 melanoma, 4.3 µM; in the test with EKVX NSCLC, 4.12 µM; in the test on BT-549 breast, 2.9 µM.
As to `c1cn2cc(-c3ccc4cn[nH]c4c3)nc(Nc3ccc(N4CCOCC4)cc3)c2n1`, the GI50 in the test on UACC-62 melanoma is 11.8 µM; with A549 NSCLC it was 10.4 µM; in the test on K-562 leukemia it was above 100 µM; in the test on DU-145 prostate it was 11.4 µM; in the test with U251 CNS, 10 µM; in the test with SN12C renal, 17 µM. Also, the GI50 in the test on UO-31 renal was 14.6 µM; with UACC-257 melanoma, 16.4 µM; with EKVX NSCLC, 14.8 µM; with BT-549 breast, 14.5 µM. Further, the TGI with UACC-62 melanoma is 37.8 µM; with A549 NSCLC, 28.8 µM; in the test with K-562 leukemia, above 100 µM; in the test on DU-145 prostate it was 23.5 µM; in the test with U251 CNS it was 21.6 µM; with SN12C renal, 41.2 µM. Also, the TGI came out at 34.8 µM in the test with UO-31 renal, 44.8 µM in the test on UACC-257 melanoma, 41.8 µM in the test on EKVX NSCLC and 48.1 µM in the test with BT-549 breast.
As to `CC(=O)OC1CC2(O)C3CCC4CC(O)CCC4(C)C3CCC2(C)C1C1=CC(=O)OC1` (stereo not given), the TGI was 0.475 µM in the test on UACC-62 melanoma; 0.0323 µM with A549 NSCLC; 1.87 µM with K-562 leukemia; 0.11 µM in the test on DU-145 prostate; 0.427 µM in the test with U251 CNS; 0.16 µM in the test with SN12C renal. Besides, the TGI was found to be 0.27 µM in the test on UO-31 renal, 0.773 µM with UACC-257 melanoma, 0.159 µM in the test on EKVX NSCLC and 0.0895 µM with BT-549 breast.
For `S=C1Nc2ccc(Cl)cc2C2(c3ccccc3)N3CCN=C3NN12` (stereo not given), the GI50 in the test on UACC-62 melanoma is 29.3 µM; in the test on A549 NSCLC it was above 100 µM; in the test with K-562 leukemia, 24.9 µM; in the test with DU-145 prostate it was 40 µM; in the test with U251 CNS, 35.1 µM; with SN12C renal it was 35.3 µM. Further, the GI50 in the test with UO-31 renal is 37.5 µM; in the test with UACC-257 melanoma it was 37 µM; with EKVX NSCLC, 55.7 µM; in the test on BT-549 breast it was 30.8 µM. Further, the TGI in the test on UACC-62 melanoma is above 100 µM; in the test on A549 NSCLC it was above 100 µM; with K-562 leukemia, 66.1 µM; in the test on DU-145 prostate it was above 100 µM; in the test with U251 CNS it was above 100 µM; with SN12C renal, above 100 µM. Moreover, the TGI in the test with UO-31 renal, in the test with UACC-257 melanoma, in the test on EKVX NSCLC and in the test with BT-549 breast was above 100 µM each time.
For the compound `C=CCC1(O)c2cccc(NCCO)c2C(=O)c2c(NCCO)cccc21`, the GI50 with UACC-62 melanoma, in the test on A549 NSCLC, in the test with K-562 leukemia, with DU-145 prostate, in the test with U251 CNS and with SN12C renal was above 100 µM in each case. For the same compound, the GI50 in the test with UO-31 renal is 95.7 µM; in the test with UACC-257 melanoma it was above 100 µM; in the test with EKVX NSCLC it was above 100 µM; in the test with BT-549 breast, above 100 µM. Besides, the TGI with UACC-62 melanoma, in the test with A549 NSCLC, in the test with K-562 leukemia, in the test with DU-145 prostate, with U251 CNS and in the test with SN12C renal was above 100 µM each time. Besides, the TGI in the test with UO-31 renal, in the test with UACC-257 melanoma, in the test on EKVX NSCLC and in the test with BT-549 breast was above 100 µM in each case.

Values taken from PubChem BioAssay (NCI).
